According to ChEMBL document CHEMBL3751691, “A Journey around the Medicinal Chemistry of Hepatitis C Virus Inhibitors Targeting NS4B: From Target to Preclinical Drug Candidates” (J Med Chem, 2016):
pEC50, pIC50, pKd, pKi: −log10 of the molar value.

Assays:
Hepatitis C virus [1] = experiment: Antiviral activity against HCV genotype 1b infected in human Huh7 cells assessed as inhibition of viral replication by luciferase reporter-based viral replicon assay; type: functional, organism-based, Hepacivirus hominis; conditions: Huh-7
Hepatitis C virus [2] = experiment: Antiviral activity against HCV genotype 1b after 3 days by luciferase reporter assay; type: functional, organism-based, Hepacivirus hominis; conditions: 72 h
Hepatitis C virus [3] = experiment: Antiviral activity against HCV genotype 1b infected in Huh7.5 cells assessed as inhibition of viral replication at 72 hrs by luciferase reporter-based viral replicon assay; type: functional, organism-based, Hepacivirus hominis; conditions: Huh7.5, 72 h
[4] = Binding affinity to […] by fluorescence assay; parameters: species or system Hepacivirus hominis
Hepatitis C virus [5] = experiment: Antiviral activity against HCV genotype 1b infected in human Huh7 cells assessed as inhibition of viral replication after 72 hrs by ELISA; type: functional, organism-based, Hepacivirus hominis; conditions: Huh-7, 72 h
[6] = Binding affinity to HCV NS4B […] by quantitative PCR analysis; parameters: species or system Hepacivirus hominis
Hepatitis C virus [7] = experiment: Antiviral activity against HCV genotype 1a (H77) infected in human Huh7 cells assessed as inhibition of viral replication by luciferase reporter-based viral replicon assay; type: functional, organism-based, Hepacivirus hominis; conditions: genotype 1a H77, Huh-7
Hepatitis C virus [8] = experiment: Antiviral activity against HCV genotype 2a (JFH-1) infected in human Huh7 cells assessed as inhibition of viral replication by luciferase reporter-based viral replicon assay; type: functional, organism-based, Hepacivirus hominis; conditions: JFH-1, Huh-7
Hepatitis C virus [9] = experiment: Antiviral activity against HCV genotype 2b infected in human Huh7 cells assessed as inhibition of viral replication by luciferase reporter-based viral replicon assay; type: functional, organism-based, Hepacivirus hominis; conditions: Huh-7
Hepatitis C virus [10] = experiment: Antiviral activity against HCV genotype 3a infected in human Huh7 cells assessed as inhibition of viral replication by luciferase reporter-based viral replicon assay; type: functional, organism-based, Hepacivirus hominis; conditions: Huh-7
Hepatitis C virus [11] = experiment: Antiviral activity against HCV genotype 4a infected in human Huh7 cells assessed as inhibition of viral replication by luciferase reporter-based viral replicon assay; type: functional, organism-based, Hepacivirus hominis; conditions: Huh-7
Hepatitis C virus [12] = experiment: Antiviral activity against HCV genotype 5a infected in human Huh7 cells assessed as inhibition of viral replication by luciferase reporter-based viral replicon assay; type: functional, organism-based, Hepacivirus hominis; conditions: Huh-7
Hepatitis C virus [13] = experiment: Antiviral activity against HCV genotype 6a infected in human Huh7 cells assessed as inhibition of viral replication by luciferase reporter-based viral replicon assay; type: functional, organism-based, Hepacivirus hominis; conditions: Huh-7
[14] = Cytotoxicity against human HuH7 cells by Cell Titer-Glo assay; type: cell-based, Huh-7
Hepatitis C virus [15] = experiment: Antiviral activity against HCV genotype 6o infected in human Huh7 cells assessed as inhibition of viral replication by luciferase reporter-based viral replicon assay; type: functional, organism-based, Hepacivirus hominis; conditions: subtype 6, Huh-7
Hepatitis C virus [16] = experiment: Antiviral activity against HCV genotype 1b infected in human Huh7.5 cells assessed as inhibition of viral replication after 24 hrs by renilla luciferase reporter-based viral replicon assay; type: functional, organism-based, Hepacivirus hominis; conditions: Huh-7, 24 h
[17] = Cytotoxicity against human Huh7.5 cells infected with HCV genotype 1b after 24 hrs by Cell Titer-Glo assay; type: cell-based, Huh-7
Hepatitis C virus [18] = experiment: Antiviral activity against HCV genotype 1a infected in Huh7.5 cells assessed as inhibition of viral replication after 24 hrs by renilla luciferase reporter-based viral replicon assay; type: functional, organism-based, Hepacivirus hominis; conditions: subtype 1a, Huh7.5, 24 h
Hepatitis C virus [19] = experiment: Antiviral activity against HCV genotype 1b; type: functional, organism-based, Hepacivirus hominis
Hepatitis C virus [20] = experiment: Antiviral activity against HCV genotype 2a; type: functional, organism-based, Hepacivirus hominis
Hepatitis C virus [21] = experiment: Antiviral activity against HCV infected in human HuH7 cells assessed as inhibition of viral replication after 72 hrs by ELISA-based viral replicon assay; type: functional, organism-based, Hepacivirus hominis; conditions: Huh-7, 72 h
Hepatitis C virus [22] = experiment: Antiviral activity against HCV genotype 1a infected in Huh7 cells assessed as inhibition of viral replication after 48 hrs by luciferase reporter-based viral replicon assay; type: functional, organism-based, Hepacivirus hominis; conditions: subtype 1a, Huh-7, 48 h
Hepatitis C virus [23] = experiment: Antiviral activity against HCV genotype 1b infected in Huh7 cells assessed as inhibition of viral replication after 48 hrs by luciferase reporter-based viral replicon assay; type: functional, organism-based, Hepacivirus hominis; conditions: Huh-7, 48 h
[24] = Cytotoxicity against human HuH7 cells infected with HCV after 72 hrs by crystal violet-based assay; type: cell-based; conditions: huh-7, 72 h
[25] = Cytotoxicity against human HuH7 cells infected with HCV genotype 1b after 48 hrs by WST-1 assay; type: cell-based, Huh-7
[26] = Inhibition of HCV NS3/4A protease; parameters: species or system Hepacivirus hominis
[27] = Inhibition of HCV GST-tagged recombinant NS3/4A protease expressed in Escherichia coli by microfluidic affinity assay; parameters: species or system Hepacivirus hominis
Hepatitis C virus [28] = experiment: Antiviral activity against HCV genotype 2a infected in Huh7.5 cells assessed as inhibition of viral replication at 72 hrs by luciferase reporter-based viral replicon assay; type: functional, organism-based, Hepacivirus hominis; conditions: Huh7.5, 72 h

SMILES: CC(C)C[C@H]1CN(C/C=C/c2ccccc2)[C@@H](CC(C)C)C(=O)N1
- EC90 (Hepatitis C virus [1]): 3.3 µM

SMILES: CC(C)C[C@H]1CN(C(=O)C2CC2)[C@@H](CC(C)C)C(=O)N1
- EC90 (Hepatitis C virus [1]): > 10 µM

SMILES: CC(C)C[C@H]1CN(C(=O)c2cccc(-c3ccccc3)c2)[C@@H](CC(C)C)C(=O)N1
- EC90 (Hepatitis C virus [1]): > 10 µM

SMILES: CC(C)C[C@H]1CN(C(=O)/C=C/c2ccc([N+](=O)[O-])cc2)[C@@H](CC(C)C)C(=O)N1
- EC90 (Hepatitis C virus [1]): > 10 µM

SMILES: CC(C)C[C@H]1CN(C(=O)/C=C/c2ccc(Cl)cc2)[C@@H](CC(C)C)C(=O)N1
- EC90 (Hepatitis C virus [1]): 1.6 µM

SMILES: CC(C)C[C@H]1CN(C(=O)/C=C/c2ccc(F)cc2)[C@@H](CC(C)C)C(=O)N1
- EC90 (Hepatitis C virus [1]): 1.5 µM

SMILES: CC(C)C[C@H]1CN(C(=O)c2coc(-c3ccccc3)n2)[C@@H](CC(C)C)C(=O)N1
- EC90 (Hepatitis C virus [1]): > 10 µM

SMILES: Cc1cnc(C(=O)N[C@H]2CCCCC/C=C\[C@@H]3C[C@@]3(C(=O)NS(=O)(=O)C3CC3)NC(=O)[C@@H]3C[C@@H](Oc4nc5ccccc5c5ccccc45)CN3C2=O)cn1
- pEC50 (Hepatitis C virus [2]): 9.68

SMILES: Clc1ccc(Cn2c(/C=C/C3CCN(CC4CCCCC4)C3)nc3cc(Br)ccc32)cc1 (centres undefined)
- pEC50 (Hepatitis C virus [3]): 5.74

SMILES: C[C@H]1CCCN1CCCOc1nn(Cc2ccc(Cl)cc2)c2ccc(-c3ccc(N4CCOCC4)nc3)cc12
- pEC50 (Hepatitis C virus [3]): 5.48

SMILES: CC[C@H](C)[C@H]1CN(C(=O)c2cc(-c3ccc(F)cc3)on2)[C@@H](CC(C)C)C(=O)N1
- EC90 (Hepatitis C virus [1]): > 10 µM

SMILES: CC(=O)c1ccc(NC(=O)c2cc3c(C)nn(-c4ccccc4)c3s2)cc1
- pKd [4]: 6.00
- pEC50 (Hepatitis C virus [5]): 5.49

SMILES: CC(C)c1ccc(NC(=O)c2ccccc2)cc1
- pKd [4]: 5.16
- pEC50 (Hepatitis C virus [5]): 5.55

SMILES: O=C(c1ccccc1)N1CCC2(CCCN(c3ncc(-c4ccccc4)c(-c4ccc(Cl)cc4)n3)C2)CC1
- pEC50 (Hepatitis C virus [1]): 7.70
- pKd [6]: 7.34
- pEC50 (Hepatitis C virus [7]): 6.10
- pEC50 (Hepatitis C virus [8]): 5.12
- pEC50 (Hepatitis C virus [9]): 5.66
- pEC50 (Hepatitis C virus [10]): 7.36
- pEC50 (Hepatitis C virus [11]): 6.70
- pEC50 (Hepatitis C virus [12]): 7.58
- pEC50 (Hepatitis C virus [13]): 6.10
- CC50 [14]: > 43 µM
- pEC50 (Hepatitis C virus [15]): 5.02

SMILES: Clc1ccc(Cn2nc(OCCCN3CCCC3)c3ccccc32)cc1
- pEC50 (Hepatitis C virus [3]): 5.43

SMILES: O=C(NCc1cccs1)c1nn2c(c1Cl)N[C@H](c1ccco1)C[C@@H]2C(F)(F)F
- pEC50 (Hepatitis C virus [16]): 6.20
- CC50 at 24 h [17]: > 100 µM
- pEC50 (Hepatitis C virus [18]): 6.21

SMILES: COC(=O)c1c(NC(=O)Cc2cccs2)sc(C(=O)Nc2ccc(Cl)cc2)c1C
- pKd [4]: 6.52
- pEC50 (Hepatitis C virus [5]): 6.15

SMILES: O=C(c1ccccc1)N1CCC2(CCCN(c3ncc(Br)c(-c4ccc(Cl)cc4)n3)C2)CC1
- pEC50 (Hepatitis C virus [1]): 6.76
- pKd [6]: 7.28
- pEC50 (Hepatitis C virus [7]): 5.66
- CC50 [14]: 38.7 µM

SMILES: Cc1nccn1-c1nc(-c2ccc(Cl)cc2)cc(C(F)(F)F)n1
- pKd [4]: 5.68
- pEC50 (Hepatitis C virus [5]): 5.66

SMILES: COc1ccc(Cl)cc1Nc1nc(-c2cccnc2)cs1
- pKd [4]: 5.77
- pEC50 (Hepatitis C virus [5]): 5.82

SMILES: O=C(NCc1cccs1)c1nn2c(c1Cl)NC(c1ccco1)CC2C(F)(F)F (racemic)
- pEC50 (Hepatitis C virus [16]): 5.75
- CC50 at 24 h [17]: > 100 µM

SMILES: CC(C)CN(C)c1nc(N)c(C(=O)N=C(N)N)nc1Cl [5-(N-METHYL-N-ISOBUTYL)AMILORIDE]
- pEC50 (Hepatitis C virus [19]): 5.60
- pEC50 (Hepatitis C virus [20]): 5.43

SMILES: O=C(NCc1cccs1)c1cc2nc(-c3ccco3)cc(C(F)(F)Cl)n2n1 [ANGUIZOLE]
- pKd [4]: 6.18
- pEC50 (Hepatitis C virus [21]): 6.20
- pEC50 (Hepatitis C virus [22]): 6.25
- pEC50 (Hepatitis C virus [23]): 6.51
- CC75 [24]: > 100 µM
- CC50 at 48 h [25]: > 50 µM

SMILES: CC(C)(C)NC(=O)N[C@H](C(=O)N1C[C@H]2[C@@H]([C@H]1C(=O)NC(CC1CCC1)C(=O)C(N)=O)C2(C)C)C(C)(C)C (some centres undefined) [BOCEPREVIR]
- pKi [26]: 7.85

SMILES: Clc1ccc(Cn2c(CN3CCCC3)nc3ccccc32)cc1 [CLEMIZOLE]
- pIC50 [27]: 7.62
- pEC50 (Hepatitis C virus [28]): 5.10
- pEC50 (Hepatitis C virus [3]): 4.64
